Changes are numbered by the printed parent chain.

Here are results for 3 compounds from article PMC12012479, “Structural and functional characterization of the brain-specific dynamin superfamily member RNF112” (Proceedings of the National Academy of Sciences of the …, 2025).

For experiment [1], the target named is T1, RNF112T (xlRNF112T) (Xenopus laevis, UniProt Q2VPQ0).
T1 construct: gene rnf112.2.L; GTPase domain + three-helix middle domain; His6-SUMO tag cut by ULP1; E. coli; monomer, dimer with GDP-AlF4-
T1 sequence (Q2VPQ0 120-541 limits assumed): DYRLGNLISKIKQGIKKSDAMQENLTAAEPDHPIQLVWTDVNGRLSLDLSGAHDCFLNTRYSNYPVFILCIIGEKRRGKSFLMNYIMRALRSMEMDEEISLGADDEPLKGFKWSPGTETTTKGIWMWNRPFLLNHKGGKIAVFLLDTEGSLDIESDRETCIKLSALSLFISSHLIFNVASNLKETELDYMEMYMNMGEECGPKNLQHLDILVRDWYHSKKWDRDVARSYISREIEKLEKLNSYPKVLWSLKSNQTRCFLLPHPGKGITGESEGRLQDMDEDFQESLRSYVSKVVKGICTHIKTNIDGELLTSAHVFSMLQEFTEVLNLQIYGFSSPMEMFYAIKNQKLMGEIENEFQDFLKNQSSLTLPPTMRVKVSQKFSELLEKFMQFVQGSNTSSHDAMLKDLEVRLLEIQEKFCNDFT
In words: ITC. The format is binding. Conditions: 5 mM MgCl2, 150 mM NaCl, pH 7.4, 25 °C. From the text: ITC on RNF112T (xlRNF112T) | binding GTPγS and GDP with dissociation constants (Kd) in the micromolar range

Experiment [2] deals with T1, RNF112T (xlRNF112T). As to the kind of experiment: X-ray crystal structure (form […] from GTPγS, […] Å; form […] by soaking). In kind it is binding. Conditions: nucleotide pocket of GTPase domain.
Experiment [3] addresses T2, mouse RNF112T (Mus musculus, UniProt Q96DY5).
T2 construct: gene Rnf112; truncated, GTPase domain + middle domain (borders not in main text); E. coli
T2 sequence (Q96DY5 170-563 limits assumed): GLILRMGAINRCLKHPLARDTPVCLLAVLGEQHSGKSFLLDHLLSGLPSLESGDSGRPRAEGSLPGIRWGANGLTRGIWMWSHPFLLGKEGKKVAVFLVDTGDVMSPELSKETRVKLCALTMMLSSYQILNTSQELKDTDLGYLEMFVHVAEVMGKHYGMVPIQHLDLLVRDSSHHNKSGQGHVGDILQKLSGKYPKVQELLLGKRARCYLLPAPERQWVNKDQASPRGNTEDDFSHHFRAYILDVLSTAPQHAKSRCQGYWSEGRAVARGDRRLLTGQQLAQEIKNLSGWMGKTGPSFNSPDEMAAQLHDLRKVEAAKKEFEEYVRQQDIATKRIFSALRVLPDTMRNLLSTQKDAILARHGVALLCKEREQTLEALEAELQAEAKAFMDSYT
As to the kind of experiment: GTP hydrolysis assay. The format is biochemical. The conditions noted are these: 1 mM GTP, 20 μM protein, 1 mM MnCl2, pH 7.0, 37 °C.

For experiment [4], the target named is T3, human RNF112T (Homo sapiens, UniProt Q9ULX5).
T3 construct: gene RNF112; truncated, GTPase domain + middle domain (borders not in main text); E. coli
T3 sequence (Q9ULX5 150-540 limits assumed): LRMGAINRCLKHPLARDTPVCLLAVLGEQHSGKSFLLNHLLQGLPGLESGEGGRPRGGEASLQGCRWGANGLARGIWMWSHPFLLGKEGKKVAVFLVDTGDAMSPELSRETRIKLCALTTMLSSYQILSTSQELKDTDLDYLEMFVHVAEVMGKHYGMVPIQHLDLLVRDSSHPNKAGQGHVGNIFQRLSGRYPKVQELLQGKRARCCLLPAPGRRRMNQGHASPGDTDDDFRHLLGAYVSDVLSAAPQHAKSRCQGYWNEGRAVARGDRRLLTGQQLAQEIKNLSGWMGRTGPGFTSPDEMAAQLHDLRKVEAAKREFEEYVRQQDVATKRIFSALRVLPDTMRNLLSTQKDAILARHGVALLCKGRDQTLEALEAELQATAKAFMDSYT
As to the kind of experiment: GTP hydrolysis assay. The format is biochemical. Conditions: 1 mM GTP, 20 μM protein, 1 mM MnCl2, pH 7.0, 37 °C.

The target in experiment [5] is T4, RNF112F (Xenopus laevis, UniProt Q2VPQ0, T240A, form not given).
T4 construct: gene rnf112.2.L; near-full-length, residues 60 to 541 (RING, GTPase and middle domains); His6-SUMO tag cut by ULP1; E. coli; dimer with GDP-AlF4-
T4 sequence (Q2VPQ0 60-541 T240A): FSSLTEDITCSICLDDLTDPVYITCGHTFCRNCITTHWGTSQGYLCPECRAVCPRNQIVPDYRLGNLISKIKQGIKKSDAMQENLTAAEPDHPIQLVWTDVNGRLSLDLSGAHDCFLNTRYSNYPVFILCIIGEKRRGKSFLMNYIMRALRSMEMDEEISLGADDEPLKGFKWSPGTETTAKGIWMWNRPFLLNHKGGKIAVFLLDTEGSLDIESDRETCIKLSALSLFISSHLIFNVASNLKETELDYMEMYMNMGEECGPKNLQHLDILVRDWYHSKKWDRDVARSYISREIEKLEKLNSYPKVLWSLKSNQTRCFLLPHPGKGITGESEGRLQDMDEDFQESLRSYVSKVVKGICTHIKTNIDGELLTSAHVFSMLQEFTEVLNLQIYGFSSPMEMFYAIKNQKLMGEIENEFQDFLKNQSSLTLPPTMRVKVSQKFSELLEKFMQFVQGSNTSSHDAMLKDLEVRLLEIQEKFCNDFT
As to the kind of experiment: binding assay in SI Fig. S9. Conditions: GTPase-deficient mutant.

Experiment [6] deals with T5, RNF112F (Xenopus laevis, UniProt Q2VPQ0).
T5 construct: gene rnf112.2.L; near-full-length, residues 60 to 541 (RING, GTPase and middle domains); His6-SUMO tag cut by ULP1; E. coli; dimer with GDP-AlF4-
T5 sequence (Q2VPQ0 60-541): T4 sequence (Q2VPQ0 60-541 T240A) with A181T
As to the kind of experiment: GTP hydrolysis assay. The format is biochemical. Conditions: 1 mM GTP, 20 μM protein, 1 mM MnCl2, pH 7.0, 37 °C.

Experiment [7] addresses near-full-length Xenopus laevis RNF112 containing residues 60 to 541 (RNF112F) (Xenopus laevis). As to the kind of experiment: SEC; analytical gel filtration in the presence of GDP•AlF4^−. Background: In gel filtration, larger molecules generally elute earlier.

One may read the Kd as the equilibrium constant for the complex coming apart. A high value points to weaker binding. With `Nc1nc2c(ncn2[C@@H]2O[C@H](COP(=O)(O)OP(=O)(O)O)[C@@H](O)[C@H]2O)c(=O)[nH]1` [GDP], the equilibrium dissociation constant (Kd) in experiment [1] is 14.4 ± 2.5 µM. For the same compound, in experiment [2], the “X-ray crystal structure (form 1 from GTPγS, 2.2 Å; form 2 by soaking)” value was “GDP-bound RNF112T structure derived from a nucleotide-free RNF112T crystal soaked with GDP”.
Turning to `Nc1nc2c(ncn2[C@@H]2O[C@H](COP(=O)(O)OP(=O)(O)OP(=O)(O)O)[C@@H](O)[C@H]2O)c(=O)[nH]1` [GTP], the GTP hydrolysis assay entry was “purified human and mouse RNF112T had relatively weak GTPase activity” in experiment [3]; “purified human and mouse RNF112T had relatively weak GTPase activity” in experiment [4]; “showed similar GTPase activity as RNF112T” in experiment [6]. Besides, the “binding assay in SI Fig. S9” value in experiment [5] was “GTPase-deficient mutant RNF112F(T240A), which bound GTP but did not dimerize”.
By stoichiometry N is commonly meant a count of units in the complex or per binding partner. Regarding “near-full-length Xenopus laevis RNF112 containing residues 60 to 541 (RNF112F) (domain or fragment)”, the stoichiometry N in experiment [7] is 2.
